{"source": "patent US6624140B1", "about": "“Synthetic peptides with antimicrobial and endotoxin neutralizing properties for management of the sepsis syndrome” (Academisch Ziekenhuis Bij de Universiteit van Amsterdam …, priority 1997, dated 2003)", "key": {"[1]": {"assay": "Endotoxin Inhibition ELISA (EIE), competitive inhibition of Lipid A binding", "set-up": "species or system Escherichia coli", "conditions": "biotinylated BP2; 1 pg/ml E. coli 0111:B4 LPS", "experimental": "FIG. 6. Competitive inhibition of binding of synthetic peptide BP2 to immobilized lipid A by endotoxin. Biotinylated BP2 peptide in the indicated concentration range was pre-incubated with E. coli 0111:B4 LPS at 1 pg/ml for 20 min at 23° C. and the residual endotoxin binding activity was determined with the use of a lipid A binding ELISA microplate assay. Individual values are the means of triplicate experiments corrected for non-specific binding.\nFIGS. 7A and 7B. Detection of endotoxin in solution with a Lipid A binding assay, the endotoxin inhibition ELISA (EIE) microplate assay. Dose-response of residual LPS binding activity of synthetic peptide BP2 at 8 ng/ml after pre-incubation with E. coli 0111:B4 LPS in the ranges from 0.1 to 1000 pg/ml (Panel A) or from 0.1 to 100 pg/ml (Panel B).\nCapture of the TAG labeled J5 LPS by immobilized synthetic peptide was quantitated by electrochemiluminescence detection subsequent to washing steps with phosphate buffer containing 0.1% (w/v) Triton X100 to remove excess unbound LPS. […] This confirms the high capacity of immobilized peptides of the invention for endotoxin in solution. […] LPS with high affinity and are universal lipid A binding ligands. […]"}, "TNF-α production": {"test_system": "TNF-α production", "assay": "TNF-α in whole blood ex vivo, peptide added before LPS challenge", "format": "cell-based, human", "experimental": "FIG. 12. Effect of pre-challenge addition of synthetic peptides on TNF-a levels induced by E. coli 0111:B4 LPS in whole blood ex vivo. The synthetic peptides BP2, BP2.1 or BP2.2 were added to whole blood containing heparin at 2 I.U/ml at the concentrations indicated and incubated for 10 min at 37° C. TNF-α concentrations were measured after incubation for 4 h at 37° C. subsequent to addition of E. coli 0111:B4 LPS at 1 ng/ml. The values represent the means of triplicate experiments. Controls only contained added LPS.\nTo determine whether addition of synthetic peptide to whole blood ex vivo prior to endotoxin challenge was effective in endotoxin neutralization assayed in terms of cytokine production, a synthetic peptide of the invention BP2, and the analogues BP2.1 or BP2.2 were added at concentrations of 2.5 to 20 μg/ml to whole blood and incubated for 10 min at 37° C. prior to the addition of 1 ng/ml E. coli 0111:B4 LPS. TNF-α concentrations were determined as previously described. […] The structurally related LPS-binding synthetic peptide analogues BP2.1 and BP2.2 were ineffective in endotoxin neutralization under these conditions."}}, "note": "No end group written: not given here.", "data": [{"substance": "GKWKLFKKAFKKFLKILAC-OH [BP2, Gly-Lys-Trp-Lys-Leu-Phe-Lys-Lys-Ala-Phe-Lys-Lys-Phe-Leu-Lys-Ile-Leu-Ala-Cys]", "values": [{"measurement": "inhibition of binding of peptide to immobilized Lipid A", "setting": "[1]", "result": 65, "unit": "%"}, {"measurement": "endotoxin neutralization (TNF-α production)", "setting": "TNF-α production; 2.5 to 20 μg/ml added 10 min before 1 ng/ml LPS", "result": "dose-dependent inhibition"}, {"measurement": "inhibition of cytokine (TNF-α) production", "setting": "TNF-α production; peptide 20 μg/ml added 10 min before 1 ng/ml LPS", "result": 57, "unit": "%"}]}]}
